What all share (test): biochemical
Common to all, as to parameters: AlphaScreen histone demethylase activity assay
On the technique in general: Alpha assays give light when donor and acceptor beads are brought close together.

One assay addresses JARID1A (KDM5A) (Homo sapiens, UniProt P29375). The source says: (§1) A base‐mediated 5‐endo‐trig cyclization of a C‐2‐substituted aromatic imine afforded the racemic indoline core with two adjacent stereocenters. Subsequent acylation of the indoline ring system conferred stability towards oxidation and provided a handle for modulating polarity. Finally, metal‐catalysed cross‐coupling of the aryl bromide provided access to a variety of linkers between the indoline core and pyrrolidine capping group. In total, 45 racemic compounds were synthesized, and IC50 values for inhibition of KDM2A were determined using two orthogonal enzyme activity assays: AlphaScreen25 and RapidFire MS26 (see Section S3.1 in the Supporting Information for complete inhibition data). Key structure–activity relationships are summarized below (Scheme 1 B, compounds 2–12). […] In immunofluorescence assays using HeLa cells ectopically expressing catalytically active KDM2A, a dose‐dependent increase in H3K36me2 staining was observed upon incubation with (S,S)‐6, reflecting augmented cellular H3K36me2 levels (Figure 2 A and Section S3.3). […] To profile its selectivity, (S,S)‐6 was tested for inhibitory activity against a panel of KDMs, methyllysine binding motifs, and epigenetic enzymes.

For a further assay, the target named is T1, JMJD1A (KDM3A) (Homo sapiens, UniProt Q9Y4C1).
T1 sequence (Q9Y4C1 1-1321): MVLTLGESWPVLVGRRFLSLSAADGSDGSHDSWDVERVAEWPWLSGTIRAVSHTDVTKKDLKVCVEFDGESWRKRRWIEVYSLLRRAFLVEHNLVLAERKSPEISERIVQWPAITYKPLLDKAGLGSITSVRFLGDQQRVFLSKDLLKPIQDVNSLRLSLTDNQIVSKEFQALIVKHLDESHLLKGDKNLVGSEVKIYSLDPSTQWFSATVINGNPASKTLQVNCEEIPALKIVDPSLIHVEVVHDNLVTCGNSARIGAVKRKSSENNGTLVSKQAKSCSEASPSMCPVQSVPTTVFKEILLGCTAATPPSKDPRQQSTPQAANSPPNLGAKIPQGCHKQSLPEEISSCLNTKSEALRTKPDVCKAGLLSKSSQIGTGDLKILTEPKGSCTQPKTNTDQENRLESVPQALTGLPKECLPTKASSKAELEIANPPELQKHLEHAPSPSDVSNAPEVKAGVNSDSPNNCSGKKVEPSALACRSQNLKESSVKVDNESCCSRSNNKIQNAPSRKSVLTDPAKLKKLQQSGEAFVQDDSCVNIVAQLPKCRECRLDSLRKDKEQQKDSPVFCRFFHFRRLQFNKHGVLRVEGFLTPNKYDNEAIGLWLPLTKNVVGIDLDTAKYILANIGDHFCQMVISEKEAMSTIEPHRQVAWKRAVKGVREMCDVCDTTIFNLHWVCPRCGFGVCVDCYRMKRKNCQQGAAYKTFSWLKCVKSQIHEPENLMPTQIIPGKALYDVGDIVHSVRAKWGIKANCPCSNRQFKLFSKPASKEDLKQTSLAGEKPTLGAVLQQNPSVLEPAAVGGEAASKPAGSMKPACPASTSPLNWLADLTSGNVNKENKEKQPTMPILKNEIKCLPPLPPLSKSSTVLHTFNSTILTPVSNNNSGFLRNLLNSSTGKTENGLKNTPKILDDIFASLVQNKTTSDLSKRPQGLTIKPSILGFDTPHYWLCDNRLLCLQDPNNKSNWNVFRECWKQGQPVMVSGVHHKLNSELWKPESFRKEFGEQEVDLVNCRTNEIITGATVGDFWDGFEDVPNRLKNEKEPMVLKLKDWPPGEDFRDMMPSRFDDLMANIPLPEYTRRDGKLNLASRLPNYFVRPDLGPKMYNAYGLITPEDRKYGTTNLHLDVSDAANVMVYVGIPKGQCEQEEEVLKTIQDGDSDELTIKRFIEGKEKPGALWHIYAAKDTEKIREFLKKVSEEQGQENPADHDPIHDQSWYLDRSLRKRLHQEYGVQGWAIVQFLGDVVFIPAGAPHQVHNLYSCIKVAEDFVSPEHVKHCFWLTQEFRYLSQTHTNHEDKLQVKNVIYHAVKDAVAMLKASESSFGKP
Description: as §1

A further assay deals with JARID1C (KDM5C) (Homo sapiens, UniProt P41229).
Sequence of JARID1C (KDM5C) (P41229 whole entry): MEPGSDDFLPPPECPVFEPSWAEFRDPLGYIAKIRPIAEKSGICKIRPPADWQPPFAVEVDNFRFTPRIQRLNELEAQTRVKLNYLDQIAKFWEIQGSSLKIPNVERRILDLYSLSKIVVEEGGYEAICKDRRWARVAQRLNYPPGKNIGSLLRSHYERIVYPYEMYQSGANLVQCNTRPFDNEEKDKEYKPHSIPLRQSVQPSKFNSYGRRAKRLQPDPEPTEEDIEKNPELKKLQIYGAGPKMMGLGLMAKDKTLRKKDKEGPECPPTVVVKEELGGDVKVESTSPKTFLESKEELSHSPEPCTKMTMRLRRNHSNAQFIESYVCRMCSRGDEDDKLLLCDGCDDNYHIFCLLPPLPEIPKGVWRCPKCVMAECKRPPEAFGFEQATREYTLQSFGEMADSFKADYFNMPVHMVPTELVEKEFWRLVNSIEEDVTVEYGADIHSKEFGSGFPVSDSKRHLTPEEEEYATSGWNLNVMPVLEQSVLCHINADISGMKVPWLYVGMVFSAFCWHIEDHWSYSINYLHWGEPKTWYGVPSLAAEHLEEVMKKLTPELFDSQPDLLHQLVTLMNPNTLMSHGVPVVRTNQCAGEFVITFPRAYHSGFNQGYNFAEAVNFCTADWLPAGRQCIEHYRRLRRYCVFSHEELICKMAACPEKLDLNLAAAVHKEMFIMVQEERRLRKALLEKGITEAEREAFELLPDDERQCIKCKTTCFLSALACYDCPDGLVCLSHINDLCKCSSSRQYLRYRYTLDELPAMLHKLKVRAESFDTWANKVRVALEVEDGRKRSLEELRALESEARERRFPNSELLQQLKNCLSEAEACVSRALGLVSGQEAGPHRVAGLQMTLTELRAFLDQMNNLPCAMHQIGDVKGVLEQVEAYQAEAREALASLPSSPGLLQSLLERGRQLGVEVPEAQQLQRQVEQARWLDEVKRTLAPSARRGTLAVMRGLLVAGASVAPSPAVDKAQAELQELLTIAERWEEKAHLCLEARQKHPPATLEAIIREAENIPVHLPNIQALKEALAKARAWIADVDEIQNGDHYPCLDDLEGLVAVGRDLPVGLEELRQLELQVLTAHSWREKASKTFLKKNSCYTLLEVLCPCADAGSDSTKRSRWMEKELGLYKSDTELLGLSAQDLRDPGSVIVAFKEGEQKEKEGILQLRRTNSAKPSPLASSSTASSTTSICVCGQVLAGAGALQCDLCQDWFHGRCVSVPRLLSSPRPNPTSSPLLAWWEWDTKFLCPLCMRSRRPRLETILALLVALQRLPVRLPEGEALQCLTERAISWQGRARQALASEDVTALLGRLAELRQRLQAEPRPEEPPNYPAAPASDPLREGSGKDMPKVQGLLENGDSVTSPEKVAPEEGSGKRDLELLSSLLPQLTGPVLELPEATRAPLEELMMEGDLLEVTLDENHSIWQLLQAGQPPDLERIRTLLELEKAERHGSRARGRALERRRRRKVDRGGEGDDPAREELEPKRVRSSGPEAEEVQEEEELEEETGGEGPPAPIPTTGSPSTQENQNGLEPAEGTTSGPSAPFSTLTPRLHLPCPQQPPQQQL
Description: as §1

For a further assay, the target named is T2, JMJD2C (KDM4C) (Homo sapiens, UniProt Q9H3R0).
T2 sequence (Q9H3R0 1-1056): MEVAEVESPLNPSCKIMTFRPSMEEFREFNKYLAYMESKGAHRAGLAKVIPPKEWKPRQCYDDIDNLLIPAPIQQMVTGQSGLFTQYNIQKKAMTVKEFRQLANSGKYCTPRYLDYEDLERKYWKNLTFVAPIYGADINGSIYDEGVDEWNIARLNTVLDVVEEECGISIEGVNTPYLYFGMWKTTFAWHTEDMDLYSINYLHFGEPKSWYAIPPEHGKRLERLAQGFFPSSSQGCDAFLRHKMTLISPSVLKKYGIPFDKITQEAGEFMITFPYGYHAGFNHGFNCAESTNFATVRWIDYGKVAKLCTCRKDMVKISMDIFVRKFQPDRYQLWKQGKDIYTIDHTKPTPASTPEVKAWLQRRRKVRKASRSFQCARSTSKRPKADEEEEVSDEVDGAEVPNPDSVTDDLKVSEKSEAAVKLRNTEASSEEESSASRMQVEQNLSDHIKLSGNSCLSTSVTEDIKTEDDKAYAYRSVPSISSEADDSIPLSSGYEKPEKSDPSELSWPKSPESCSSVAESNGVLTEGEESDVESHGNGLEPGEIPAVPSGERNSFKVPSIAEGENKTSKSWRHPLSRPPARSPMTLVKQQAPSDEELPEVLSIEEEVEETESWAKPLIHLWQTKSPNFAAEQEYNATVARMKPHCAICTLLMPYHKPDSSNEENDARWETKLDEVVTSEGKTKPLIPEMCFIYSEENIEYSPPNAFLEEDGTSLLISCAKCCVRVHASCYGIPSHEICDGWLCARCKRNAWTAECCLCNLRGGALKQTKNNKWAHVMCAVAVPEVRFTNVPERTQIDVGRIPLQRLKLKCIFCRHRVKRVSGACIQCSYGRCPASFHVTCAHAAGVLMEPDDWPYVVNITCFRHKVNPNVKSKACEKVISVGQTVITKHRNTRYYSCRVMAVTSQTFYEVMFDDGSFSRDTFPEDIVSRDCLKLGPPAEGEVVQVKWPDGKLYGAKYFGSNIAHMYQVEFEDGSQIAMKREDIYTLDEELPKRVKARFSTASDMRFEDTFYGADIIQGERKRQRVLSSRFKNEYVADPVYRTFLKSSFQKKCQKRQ
To be noted: read-out: KDM4C % Inhib. (10 uM).
Description: as §1

Another assay addresses T3, JMJD2D (KDM4D) (Homo sapiens, UniProt Q6B0I6).
T3 sequence (Q6B0I6 1-523): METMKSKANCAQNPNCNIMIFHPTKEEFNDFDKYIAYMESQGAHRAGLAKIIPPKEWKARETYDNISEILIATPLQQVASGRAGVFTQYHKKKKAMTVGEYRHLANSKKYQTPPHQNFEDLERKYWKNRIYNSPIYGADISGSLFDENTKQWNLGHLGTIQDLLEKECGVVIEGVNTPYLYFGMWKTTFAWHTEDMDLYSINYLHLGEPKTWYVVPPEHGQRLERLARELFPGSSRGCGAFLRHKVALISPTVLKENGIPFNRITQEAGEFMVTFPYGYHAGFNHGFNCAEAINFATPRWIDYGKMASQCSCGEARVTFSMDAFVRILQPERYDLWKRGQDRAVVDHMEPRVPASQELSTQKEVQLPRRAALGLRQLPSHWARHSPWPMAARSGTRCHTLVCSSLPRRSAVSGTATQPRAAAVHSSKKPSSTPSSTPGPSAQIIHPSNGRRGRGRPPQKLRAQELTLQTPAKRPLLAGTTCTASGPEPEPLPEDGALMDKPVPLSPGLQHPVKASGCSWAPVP
Description: as §1

The next assay addresses T4, JMJD2A (KDM4A) (Homo sapiens, UniProt O75164).
T4 sequence (O75164 1-1064): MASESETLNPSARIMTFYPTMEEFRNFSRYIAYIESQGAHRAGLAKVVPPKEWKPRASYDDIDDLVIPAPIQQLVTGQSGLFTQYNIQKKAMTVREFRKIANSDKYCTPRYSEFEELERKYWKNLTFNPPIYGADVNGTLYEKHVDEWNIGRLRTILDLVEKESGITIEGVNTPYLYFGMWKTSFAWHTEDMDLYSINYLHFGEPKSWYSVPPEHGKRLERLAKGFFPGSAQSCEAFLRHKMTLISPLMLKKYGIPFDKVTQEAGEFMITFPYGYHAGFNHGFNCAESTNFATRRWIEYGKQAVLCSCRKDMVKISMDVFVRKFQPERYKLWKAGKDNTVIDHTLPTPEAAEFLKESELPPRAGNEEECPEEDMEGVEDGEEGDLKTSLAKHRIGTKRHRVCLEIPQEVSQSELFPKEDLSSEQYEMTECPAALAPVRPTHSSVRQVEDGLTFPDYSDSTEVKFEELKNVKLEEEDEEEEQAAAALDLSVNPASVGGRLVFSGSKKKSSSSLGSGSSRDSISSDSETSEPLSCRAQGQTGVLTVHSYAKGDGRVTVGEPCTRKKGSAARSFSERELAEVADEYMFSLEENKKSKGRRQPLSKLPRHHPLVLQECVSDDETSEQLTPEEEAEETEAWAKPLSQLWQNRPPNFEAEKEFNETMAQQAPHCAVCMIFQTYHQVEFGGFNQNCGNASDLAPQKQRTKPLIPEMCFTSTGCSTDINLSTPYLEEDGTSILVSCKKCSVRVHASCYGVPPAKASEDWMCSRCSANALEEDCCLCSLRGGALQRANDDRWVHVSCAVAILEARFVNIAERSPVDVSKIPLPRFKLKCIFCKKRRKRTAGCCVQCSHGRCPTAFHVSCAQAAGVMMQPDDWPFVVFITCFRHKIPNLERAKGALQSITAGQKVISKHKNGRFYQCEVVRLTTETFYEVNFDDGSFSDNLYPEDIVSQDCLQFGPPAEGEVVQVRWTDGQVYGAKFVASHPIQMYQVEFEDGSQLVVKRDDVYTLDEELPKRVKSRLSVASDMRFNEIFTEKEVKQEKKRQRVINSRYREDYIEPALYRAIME
The following applies: read-out: KDM4A % Inhib. (10 uM).

Sequence of JARID1A (KDM5A) (P29375 whole entry): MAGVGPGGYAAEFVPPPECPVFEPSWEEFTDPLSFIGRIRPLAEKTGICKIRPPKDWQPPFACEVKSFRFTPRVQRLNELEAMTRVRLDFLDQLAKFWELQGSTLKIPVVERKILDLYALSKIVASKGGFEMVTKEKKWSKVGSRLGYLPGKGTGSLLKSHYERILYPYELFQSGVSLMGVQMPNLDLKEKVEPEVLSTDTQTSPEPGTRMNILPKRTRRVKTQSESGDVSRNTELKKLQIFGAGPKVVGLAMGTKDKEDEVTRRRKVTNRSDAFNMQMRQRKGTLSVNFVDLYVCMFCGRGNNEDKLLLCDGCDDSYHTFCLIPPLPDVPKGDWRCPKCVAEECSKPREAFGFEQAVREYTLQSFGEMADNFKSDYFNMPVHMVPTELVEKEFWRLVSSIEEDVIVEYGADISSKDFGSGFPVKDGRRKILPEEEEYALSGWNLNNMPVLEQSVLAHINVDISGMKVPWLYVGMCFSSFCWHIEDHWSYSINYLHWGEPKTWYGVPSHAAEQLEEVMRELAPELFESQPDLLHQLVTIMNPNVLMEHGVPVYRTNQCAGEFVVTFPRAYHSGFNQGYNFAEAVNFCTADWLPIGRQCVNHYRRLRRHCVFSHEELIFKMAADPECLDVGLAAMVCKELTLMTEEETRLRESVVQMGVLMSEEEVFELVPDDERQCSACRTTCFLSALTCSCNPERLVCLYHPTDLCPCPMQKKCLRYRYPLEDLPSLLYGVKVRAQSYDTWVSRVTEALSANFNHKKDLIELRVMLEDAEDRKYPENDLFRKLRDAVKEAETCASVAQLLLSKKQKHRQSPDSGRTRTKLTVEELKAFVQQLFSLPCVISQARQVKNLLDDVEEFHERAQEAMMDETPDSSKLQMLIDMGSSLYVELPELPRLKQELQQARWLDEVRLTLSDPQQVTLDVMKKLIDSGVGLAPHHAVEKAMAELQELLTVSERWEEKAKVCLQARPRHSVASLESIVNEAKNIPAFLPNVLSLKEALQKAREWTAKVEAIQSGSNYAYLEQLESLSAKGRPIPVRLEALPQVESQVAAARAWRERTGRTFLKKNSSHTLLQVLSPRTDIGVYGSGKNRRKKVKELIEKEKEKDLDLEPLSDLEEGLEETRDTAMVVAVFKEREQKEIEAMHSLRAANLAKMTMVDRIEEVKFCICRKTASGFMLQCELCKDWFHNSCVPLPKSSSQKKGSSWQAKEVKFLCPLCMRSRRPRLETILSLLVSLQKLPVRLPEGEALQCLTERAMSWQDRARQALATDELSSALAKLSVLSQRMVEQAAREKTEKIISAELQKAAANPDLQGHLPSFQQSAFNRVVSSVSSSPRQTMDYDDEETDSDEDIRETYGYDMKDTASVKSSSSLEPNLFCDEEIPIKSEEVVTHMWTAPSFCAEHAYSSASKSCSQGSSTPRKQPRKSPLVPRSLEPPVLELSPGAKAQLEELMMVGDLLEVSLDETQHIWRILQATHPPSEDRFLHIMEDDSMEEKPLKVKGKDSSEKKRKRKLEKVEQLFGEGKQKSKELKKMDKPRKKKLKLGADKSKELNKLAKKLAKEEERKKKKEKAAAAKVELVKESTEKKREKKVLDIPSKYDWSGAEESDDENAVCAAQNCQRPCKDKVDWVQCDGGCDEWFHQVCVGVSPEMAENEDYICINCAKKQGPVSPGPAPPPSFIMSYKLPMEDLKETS

In the case of `CC(=O)N1c2ccccc2[C@](C#N)(c2ccccc2)[C@H]1c1cncc(/C=C/CCCCCN2CCCC2)c1` (racemic) [compound 5, 5], the inhibition at 50 µM against JARID1A (KDM5A) was 39.1%. In addition, the inhibition at 100 µM against JMJD1A (KDM3A) worked out at 15.1 ± 9.5%; against JARID1C (KDM5C), 32.3%.

For the molecule `CC(=O)N1c2ccccc2C(C#N)(c2ccccc2)C1c1cncc(-c2cn(CCCCCN3CCCC3)nn2)c1` (stereo not shown) [compound 119, 119], at JARID1A (KDM5A), the inhibition at 50 µM amounted to 39.5%. In addition, the results for the inhibition at 100 µM on JMJD1A (KDM3A) and on JARID1C (KDM5C) were 21.1% and 46.7%, respectively.

On to `CC(=O)N1c2ccccc2C(C#N)(c2ccccc2)C1c1ccc(CCCCCCCN2CCCC2)o1` (stereo not shown) [compound 138, 138], for which the inhibition at 10 µM on JMJD2C (KDM4C) was determined as 32.3%; at JMJD2D (KDM4D) it was 14.4%; at JMJD2A (KDM4A), 24.4%. In addition, on JARID1A (KDM5A), the inhibition at 50 µM stood at 46.6%.

The record behind these values is article PMC5725665, “Discovery of a Highly Selective Cell‐Active Inhibitor of the Histone Lysine Demethylases KDM2/7” (Angewandte Chemie (International Ed. in English), 2017).
